Laboratory results from a melting point compilation (Tetko et al.; mined from patent text by program, amines drawn as free bases though some values may be those of a salt).

**Q.** Which melting point does the source give for `COc1cc(C2CC(=O)OC(=O)C2)cc2c(C)c(C)oc12` here?
**A.** The melting point was 194 to 195 °C.

**Q.** For `Cc1cccc(-c2nc3ccc(OCC(C)N(C)C)cc3n2Cc2ccccc2)c1` (stereo unspecified), which melting point is on record?
**A.** The melting point was 74 °C.

**Q.** For `CC(=O)Oc1c(C(C)C)cc(NC(=O)Nc2cnc3c(C)cc(C)cc3c2-c2ccccc2Cl)cc1C(C)C`, which melting point is on record?
**A.** The melting point was 248 to 249 °C.

**Q.** Which melting point does the source give for `Cc1ccccc1-c1c(NC(=O)OC(C)(C)C)c(=O)oc2cc3c(cc12)CCC3` here?
**A.** Its melting point is 154 to 155 °C.

**Q.** For `COc1c(C)sc2nc(SCc3ccccc3)nn12`, which melting point is on record?
**A.** Its melting point is 101 to 103 °C.

**Q.** With `Cc1ccc(-c2c(CNC(=O)OC(C)(C)C)[nH]c(=O)c3ccc(C#N)cc23)cc1` as the compound, how does the melting point read?
**A.** The melting point was 156 to 157 °C.

**Q.** With `CN1CCCCC1CCc1ccccc1NC(=O)c1ccccc1C(=O)O` (stereo unspecified) as the compound, how does the melting point read?
**A.** Its melting point is 171 to 172 °C.

**Q.** Which melting point does the source give for `CCC(=O)Oc1cc(OC)cc(OC)c1C(=O)C=Cc1ccc(C)o1` here?
**A.** Its melting point is 72.5 °C.

**Q.** For `O=C1c2ccccc2C(=O)N1Cc1cnccn1`, which melting point is on record?
**A.** Its melting point is 141 to 143 °C.

**Q.** With `CCc1nc2c(N)nc3cc(OCCCOc4ccc5c(c4)nc(N)c4nc(CC)sc45)ccc3c2s1` as the compound, how does the melting point read?
**A.** Its melting point is 242 to 243 °C.

**Q.** With `CCNC(=O)NS(=O)(=O)c1ccccc1-c1ccc(Cn2c(CC)nc3c(C)ccnc32)cc1` as the compound, how does the melting point read?
**A.** Its melting point is 240 to 245 °C.

**Q.** Which melting point does the source give for `Cc1ccc(C=Cc2ccc(C#CC(C)N(O)C(N)=O)o2)cc1` (stereo unspecified) here?
**A.** The melting point was 174 °C.

**Q.** For `O=C(NOCC(O)CN1CCCCC1)c1cccc2ccccc12` (stereo unspecified), which melting point is on record?
**A.** Its melting point is 104 to 107 °C.

**Q.** Which melting point does the source give for `CCC(=O)Nc1cc(-c2c(-c3ccc(F)c(C)c3)nc3cccnn23)ccn1` here?
**A.** The melting point was 166 to 167 °C.

**Q.** With `O=C1NC(=O)C(c2ccsc2)O1` (stereo unspecified) as the compound, how does the melting point read?
**A.** Its melting point is 133 to 135 °C.

**Q.** Which melting point does the source give for `CCn1c(=O)c2c(nc(C=Cc3cccc(OC)c3O)n2C)n(CC)c1=O` here?
**A.** The melting point was 225 to 226 °C.

**Q.** For `CC1(C)C(=O)C(C)(C)c2cc(N)c(N)cc21`, which melting point is on record?
**A.** The melting point was 179 to 180 °C.

**Q.** With `O=C(O)CCc1ccccc1Cc1ccc(Cl)cc1` as the compound, how does the melting point read?
**A.** Its melting point is 107 to 109 °C.

**Q.** With `CC1(C)CC(O)CC(C)(C)N1OCc1ccccc1` as the compound, how does the melting point read?
**A.** The melting point was 86 to 87 °C.

**Q.** For `Cc1cc(C)n(-c2nc(Nc3ccc4ccccc4c3)c3ccccc3n2)n1`, which melting point is on record?
**A.** Its melting point is 213 to 216 °C.

**Q.** For `CN(C)C(=N)c1c(Cl)cc(N=Cc2ccc(N(C)C)cc2F)cc1Cl`, which melting point is on record?
**A.** Its melting point is 127 to 128 °C.

**Q.** Which melting point does the source give for `COc1ccc(S(=O)(=O)N2CCc3[nH]c4c(cnc5cc(Cl)ccc54)c3C2)cc1` here?
**A.** The melting point was > 250 °C.

**Q.** For `Cc1cc(C)n(-c2nnc(-c3ccc(Cl)cc3)c(C)n2)n1`, which melting point is on record?
**A.** Its melting point is 151 to 152 °C.

**Q.** With `Cc1c(C)c2c(c(Br)c1N)C(c1ccc(C(C)C)cc1)CO2` (stereo unspecified) as the compound, how does the melting point read?
**A.** The melting point was 191 to 193 °C.

**Q.** For `COC(=O)C(=O)c1ccc(OCCOc2ccc(S(N)(=O)=O)cc2)cc1`, which melting point is on record?
**A.** The melting point was 136 to 137 °C.

**Q.** For `Cc1cc(F)ccc1C1(c2ccc(S(C)(=O)=O)cc2C)CSC=C1c1ccc(S(C)(=O)=O)cc1` (stereo unspecified), which melting point is on record?
**A.** The melting point was 158 to 160 °C.

**Q.** Which melting point does the source give for `CCCCc1nc2cccc(C(=O)OC)c2[nH]1` here?
**A.** Its melting point is 85 °C.

**Q.** With `CC(=O)NCc1cc(C(C)(C)C)c(O)c(C(C)(C)C)c1` as the compound, how does the melting point read?
**A.** Its melting point is 80 to 84 °C.

**Q.** For `CN(C)CCOC(=O)c1ccc(CCN2CC=C(c3c[nH]c(-c4ccc(F)cc4)c3-c3ccncc3)CC2)cc1`, which melting point is on record?
**A.** The melting point was 178 to 181 °C.

**Q.** For `O=C1CCCCC1C(=S)Nc1ccc(Cl)cc1F` (stereo unspecified), which melting point is on record?
**A.** The melting point was 97 to 98 °C.

**Q.** Which melting point does the source give for `Cc1onc(-c2ccc(Cl)cc2)c1CO` here?
**A.** Its melting point is 94 to 95 °C.

**Q.** For `CNC(=O)c1ccc(N2CCN(Cc3cc4c(c(OC)c3)OCC(=O)N4)CC2)c(C)c1`, which melting point is on record?
**A.** Its melting point is 234 to 235 °C.

**Q.** For `O=S(=O)(NCc1ccc(Cl)cc1)c1cc(Cl)c2cccnc2c1O`, which melting point is on record?
**A.** The melting point was 189 to 190 °C.

**Q.** For `CCc1cc(CCc2nc3ccccc3o2)c(=O)[nH]c1COCc1ccccc1`, which melting point is on record?
**A.** Its melting point is 140 to 142 °C.

**Q.** Which melting point does the source give for `O=C1CCC(N2C(=O)c3cccc(NCc4cccs4)c3C2=O)C(=O)N1` (stereo unspecified) here?
**A.** The melting point was 223 to 225 °C.

**Q.** For `COc1ccc(-c2nn(Cc3ccccc3)c(=O)c3ccccc23)c(OC)c1OC`, which melting point is on record?
**A.** The melting point was 144 to 145 °C.

**Q.** For `Cc1ccc(N=c2sc3ncccc3c(=O)n2C)cc1`, which melting point is on record?
**A.** The melting point was 144 °C.

**Q.** With `CCOC(=O)Cc1cc(C)c(C(=O)c2ccc(C)cc2)n1C` as the compound, how does the melting point read?
**A.** Its melting point is 90 to 93 °C.

**Q.** For `c1ccc(Cn2ncc3c2-c2ccccc2C3(Cc2ccncc2)Cc2ccncc2)cc1`, which melting point is on record?
**A.** The melting point was 154 to 155 °C.

**Q.** With `CCCCCCCCCCCCN1CCN(CCCCCCNc2cc(OC)cc3c(C)ccnc23)CC1` as the compound, how does the melting point read?
**A.** The melting point was 53 to 55 °C.

**Q.** For `COc1cc(C2C3=C(COC3=O)Nc3c2cc(OC)c(OC)c3OC)ccc1O` (stereo unspecified), which melting point is on record?
**A.** Its melting point is 290 to 291 °C.

**Q.** With `O=C(c1cc(Cl)cc(Cl)c1)c1cc(Cl)cc(Cl)c1` as the compound, how does the melting point read?
**A.** Its melting point is 157 °C.

**Q.** For `CC(=O)Nc1ccc(CSc2ccc(CC(=O)O)cc2)c(C(=O)O)c1`, which melting point is on record?
**A.** Its melting point is 205 to 207 °C.

**Q.** With `CC(=O)ON1C(C)(C)CC(OC(=O)c2ccccc2)CC1(C)C` as the compound, how does the melting point read?
**A.** Its melting point is 110 to 112 °C.

**Q.** Which melting point does the source give for `Cc1nc(Cl)c([N+](=O)[O-])c(NCCNC(=O)OC(C)(C)C)c1C` here?
**A.** The melting point was 110 to 112 °C.

**Q.** Which melting point does the source give for `CCOC(=O)c1ccc2[nH]cc(C3CCN(C)CC3)c2c1` here?
**A.** The melting point was 155 to 157 °C.

**Q.** Which melting point does the source give for `CSc1nn2c(O)cc(C)nc2c1S(=O)(=O)c1ccccc1` here?
**A.** The melting point was > 220 °C.

**Q.** Which melting point does the source give for `COC(=O)C(CCSC)N(C(=O)OC(C)(C)C)C(=O)c1ccc(N)c2ccccc12` (stereo unspecified) here?
**A.** Its melting point is 131 to 132 °C.

**Q.** Which melting point does the source give for `COC(=O)Cn1c(C(=O)OCc2ccccc2)cc2cc(C)cc(C)c21` here?
**A.** Its melting point is 91 to 93 °C.

**Q.** Which melting point does the source give for `CN1C(=O)CCC(C)(C)c2cc(C(=O)Nc3ccc(C(=O)O)cc3)ccc21` here?
**A.** The melting point was > 275 °C.

**Q.** With `Nc1nc2c(s1)CC(NC(=O)CNC(=O)[C@@H](Cc1ccccc1)NS(=O)(=O)Cc1ccccc1)CC2` (stereo partly specified) as the compound, how does the melting point read?
**A.** Its melting point is 119 to 122 °C.

**Q.** With `CC(C)c1ccc(C(=O)c2ccc([N+](=O)[O-])cc2)cc1` as the compound, how does the melting point read?
**A.** Its melting point is 95 °C.

**Q.** For `CC(C)N1CC(CN(C)C)N(C)c2ccccc2C1=O` (stereo unspecified), which melting point is on record?
**A.** The melting point was 93 to 95 °C.

**Q.** With `C=CCc1nc(CC)n2nc(-c3cc(I)cnc3OCCCC)[nH]c(=O)c12` as the compound, how does the melting point read?
**A.** Its melting point is 134 to 135 °C.

**Q.** Which melting point does the source give for `C[C@H](CN(O)C(N)=O)NC(=O)OC(C)(C)C` here?
**A.** Its melting point is 156 to 160 °C.

**Q.** For `COc1ccc2c(c1)c(C(=O)OCc1ccccc1)nn2Cc1ccccc1`, which melting point is on record?
**A.** Its melting point is 107 to 109 °C.

**Q.** For `CCN(CC)C(=O)COc1ccc(CCCOC(=O)NCC2CC2)c(Oc2ncc(C(F)(F)F)cc2Cl)c1`, which melting point is on record?
**A.** Its melting point is 94 to 94.5 °C.

**Q.** With `CCOC(=O)Cc1c([N+](=O)[O-])cc(O)c2ccccc12` as the compound, how does the melting point read?
**A.** The melting point was 96 to 100 °C.

**Q.** Which melting point does the source give for `CCCCCCCCCCCCCCCCCC(=O)Oc1nc2c(N)ncnc2n1Cc1ccccc1` here?
**A.** Its melting point is 128 to 129 °C.

**Q.** For `CCN(CC)CCCCC1CCN(CCNC(=O)N2c3cc(Cl)ccc3C(=O)Nc3cccnc32)CC1`, which melting point is on record?
**A.** The melting point was 157 °C.

**Q.** For `CCCc1c(O)cccc1Oc1ccccc1C#N`, which melting point is on record?
**A.** Its melting point is 103 to 107 °C.

**Q.** With `CCCCc1ccc(CCCCC(COC(C)=O)(COC(C)=O)NC(C)=O)cc1` as the compound, how does the melting point read?
**A.** The melting point was 68 to 71 °C.

**Q.** With `C[C@]12C/C(=C\F)[C@H]3[C@@H](CCC4=CC(=O)CC[C@@H]43)[C@@H]1CCC2=O` as the compound, how does the melting point read?
**A.** Its melting point is 208 to 212 °C.

**Q.** Which melting point does the source give for `O=C1CCCCCCCCCCCCCCC1` here?
**A.** Its melting point is 67.7 °C.

**Q.** With `O=C(O)CCc1c(Cl)cccc1-c1cccs1` as the compound, how does the melting point read?
**A.** Its melting point is 83 to 86 °C.

**Q.** Which melting point does the source give for `CN(C)S(=O)(=O)N(C)c1ccc(C(O)(C(F)(F)F)C(F)(F)F)cc1` here?
**A.** The melting point was 63 to 65 °C.

**Q.** For `Cn1c(=O)n(Cc2ccccc2)c2cc(Cn3ccnc3)ccc21`, which melting point is on record?
**A.** The melting point was 129 °C.

**Q.** With `O=C(NO)c1ccc(C(=O)NOCc2ccc3ccccc3c2)cc1` as the compound, how does the melting point read?
**A.** Its melting point is 220 to 222 °C.

**Q.** Which melting point does the source give for `OC1CC=C(c2ccc(Cl)cc2)CC1` (stereo unspecified) here?
**A.** Its melting point is 108 to 112 °C.

**Q.** Which melting point does the source give for `O=C(OCc1ccccc1)C1C(=O)N(Cc2ccc(Cl)c(Cl)c2)C(=O)c2cccn21` (stereo unspecified) here?
**A.** Its melting point is 104 to 106 °C.

**Q.** With `COc1ccccc1N1CCN(Cc2ccc(O)cc2)CC1` as the compound, how does the melting point read?
**A.** The melting point was 172 °C.
